The IC50 is the concentration that inhibits the measured activity by half.

Experiment [1] relates to cultured human mast cells. The experiment in a line: Degranulation inhibition test using cultured human mast cells (IgE cross-linking, β-Hexosaminidase release). The note with it: Mast cell; cultured human mast cells, anti-hIgE stimulation, β-Hexosaminidase index, average; read-out: human degranulation ave. IC50. The class given is cell-based. The method in brief: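 CD34+ cord-blood cells cultured ≥8 weeks with SCF/IL-6/IL-3; FcεRI primed 5 days with rhIL-4 (1 ng/mL) and hIgE (0.5 μg/mL). Compound (0.1% DMSO) preincubated 10 min at 37 °C, then anti-IgE (final 10 μg/mL) 30 min; released β-hexosaminidase read at 405 nm versus total lysate, IC50 (M).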

Experiment [2] deals with GST-Syk Full Protein (human) (Homo sapiens, UniProt P43405). As to the kind of experiment: Syk kinase inhibition test (HTRF method). The class given is biochemical. The note with it: HTRF, 100 μM ATP, 30 min room temperature, average; read-out: sykHTRF ave IC50. The method in brief: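 Human GST-Syk full-length (6.4 nM) phosphorylated biotin-EDPDYEWPSA-NH2 (250 nM) with 100 μM ATP in HEPES pH 7.0/MgCl2 buffer, 2% DMSO, 30 min at room temperature. EDTA stop, then HTRF detection (streptavidin-XL665, Eu anti-phosphotyrosine) after 1 h; 665/620 ratio read.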

For `CC(=O)N[C@@H](C)c1nc(C)c(-c2cccc(Nc3cc(C)ccn3)n2)s1` [Compound A-105], the results for the IC50 in experiment [1] and in experiment [2] were above 1000 nM and 100 to 1000 nM, respectively.
Turning to `Cc1ccnc(Nc2cccc(-c3cnc([C@@H](N)CCC(=O)O)s3)n2)c1` [Compound A-106], the values for the IC50 in experiment [1] and in experiment [2] were above 1000 nM and 100 to 1000 nM, respectively.
Take `Cc1ccnc(Nc2cccc(-c3cnc([C@@H](O)CCC(=O)O)s3)n2)c1` [Compound A-107]: the IC50 is above 1000 nM in experiment [1] and 100 to 1000 nM in experiment [2].
As for `CC(=O)N[C@@H](C)c1nc(CO)c(-c2cccc(Nc3cc(C)ccn3)n2)s1` [Compound A-108], the IC50 in experiment [1] and in experiment [2] was above 1000 nM throughout.
Regarding `Cc1ccnc(Nc2cccc(-c3cnc(C4=NCCC4)s3)n2)c1` [Compound A-110], the IC50 in experiment [1] and in experiment [2] was 100 to 1000 nM in each case.
In the case of `Cc1ccnc(Nc2cccc(-c3cnc([C@H]4CC[C@H](C(N)=O)CC4)s3)n2)c1` [Compound A-111, trans-4-{5-[6-(4-methylpyridin-2-ylamino)pyridin-2-yl]thiazol-2-yl}cyclohexanecarboxamide], the figures for the IC50 in experiment [1] and in experiment [2] were 100 to 1000 nM and below 100 nM, respectively.
In the case of `Cc1ccnc(Nc2cccc(-c3cnc(C(C)(C)NC(=O)OC(C)(C)C)s3)n2)c1` [Compound A-112], the IC50 in experiment [1] and in experiment [2] was above 1000 nM in each case.
Take `Cc1ccnc(Nc2cccc(-c3cnc(C(C)(C)N)s3)n2)c1` [Compound A-113]: the IC50 in experiment [1] and in experiment [2] was 100 to 1000 nM each time.
For the molecule `CC(=O)NC(C)(C)c1ncc(-c2cccc(Nc3cc(C)ccn3)n2)s1` [Compound A-114], the IC50 in experiment [1] is above 1000 nM; in experiment [2] it was 100 to 1000 nM.
The corresponding values for `CC(=O)N[C@@H](C)c1nc(N)c(-c2cccc(Nc3cc(C)ccn3)n2)s1` [Compound A-115] are above 1000 nM and above 1000 nM.
In the same order, the values of `Cc1ccnc(Nc2cccc(-c3sc([C@H](C)NC(=O)CCC(=O)O)nc3C)n2)c1` [Compound A-116] are above 1000 nM and above 1000 nM.
As to `CC(=O)N[C@@H](C)c1nc(C(N)=O)c(-c2cccc(Nc3cc(C)ccn3)n2)s1` [Compound A-117], the IC50 in experiment [1] and in experiment [2] was above 1000 nM throughout.
For the molecule `CC(=O)Nc1nc([C@H](C)NC(C)=O)sc1-c1cccc(Nc2cc(C)ccn2)n1` [Compound A-119], the IC50 in experiment [1] and in experiment [2] was above 1000 nM each time.
Regarding `CCOC(=O)CCC(=O)N[C@@H](C)c1ncc(-c2cccc(Nc3cc(C)ccn3)n2)s1` [Compound A-120], the IC50 in experiment [1] and in experiment [2] was above 1000 nM throughout.
For `CCOC(=O)CC(=O)N[C@@H](C)c1ncc(-c2cccc(Nc3cc(C)ccn3)n2)s1` [Compound A-122], the IC50 in experiment [1] and in experiment [2] was above 1000 nM throughout.
For `Cc1ccnc(Nc2cccc(-c3cnc([C@H](C)NC(=O)CC(=O)O)s3)n2)c1` [Compound A-123], the IC50 in experiment [1] was above 1000 nM; in experiment [2] it was 100 to 1000 nM.
The corresponding values for `Cc1ccnc(Nc2cccc(-c3cnc(C(=O)CCC(=O)O)s3)n2)c1` [Compound A-124] are above 1000 nM and 100 to 1000 nM.
For the molecule `CC(=O)N[C@@H](C)c1nc(C(C)=O)c(-c2cccc(Nc3cc(C)ccn3)n2)s1` [Compound A-126], the IC50 in experiment [1] and in experiment [2] was above 1000 nM in each case.
With `Cc1ccnc(Nc2cccc(-c3cnc(CCCCCNC(=O)OC(C)(C)C)s3)n2)c1` [Compound A-127], the IC50 in experiment [1] and in experiment [2] was above 1000 nM in each case.
On to `Cc1ccnc(Nc2cccc(-c3cnc(CCCCCN)s3)n2)c1` [Compound A-128, 5-{5-[6-(4-methylpyridin-2-ylamino)pyridin-2-yl]thiazol-2-yl}pentylamine], for which the values for the IC50 in experiment [1] and in experiment [2] were above 1000 nM and below 100 nM, respectively.
For `CC(=O)NCCCCCc1ncc(-c2cccc(Nc3cc(C)ccn3)n2)s1` [Compound A-129], the IC50 in experiment [1] is above 1000 nM; in experiment [2], 100 to 1000 nM.
`COC(=O)CCCc1ncc(-c2cccc(Nc3cc(C)ccn3)n2)s1` [Compound A-130]: the IC50 in experiment [1] is above 1000 nM; in experiment [2], 100 to 1000 nM.
Consider `Cc1ccnc(Nc2cccc(-c3cnc(CCCC(=O)O)s3)n2)c1` [Compound A-131], for which the IC50 in experiment [1] was above 1000 nM; in experiment [2], 100 to 1000 nM.
In the case of `Cc1ccnc(Nc2cccc(-c3cnc(CCCCO)s3)n2)c1` [Compound A-132, 4-{5-[6-(4-methylpyridin-2-ylamino)pyridin-2-yl]thiazol-2-yl}butan-1-ol], the IC50 in experiment [1] was 100 to 1000 nM; in experiment [2] it was below 100 nM.
As to `COc1ccc(C[C@H](N)c2ncc(-c3cccc(Nc4cc(C)ccn4)n3)s2)cc1` [Compound A-134], the IC50 in experiment [1] was above 1000 nM; in experiment [2], 100 to 1000 nM.
`Cc1ccnc(Nc2cccc(-c3cnc(CCc4ccc(O)cc4)s3)n2)c1` [Compound A-135, 4-(2-{5-[6-(4-methylpyridin-2-ylamino)pyridin-2-yl]thiazol-2-yl}ethyl)phenol]: the IC50 was 100 to 1000 nM in experiment [1] and below 100 nM in experiment [2].
On to `COc1ccc(C[C@H](NC(C)=O)c2ncc(-c3cccc(Nc4cc(C)ccn4)n3)s2)cc1` [Compound A-136], for which the figures for the IC50 in experiment [1] and in experiment [2] were above 1000 nM and 100 to 1000 nM, respectively.
Turning to `COc1ccc(CCc2ncc(-c3cccc(Nc4cc(C)ccn4)n3)s2)cc1` [Compound A-137], the values for the IC50 in experiment [1] and in experiment [2] were above 1000 nM and 100 to 1000 nM, respectively.
The corresponding values for `COc1ccc(C[C@H](N)c2ncc(-c3cccc(Nc4cc(C)ccn4)n3)s2)cc1OC` [Compound A-138] are above 1000 nM and 100 to 1000 nM.
As for `COc1ccc(C[C@H](NC(C)=O)c2ncc(-c3cccc(Nc4cc(C)ccn4)n3)s2)cc1OC` [Compound A-139], the IC50 in experiment [1] was above 1000 nM; in experiment [2], 100 to 1000 nM.
Consider `CC(=O)N[C@@H](Cc1ccc(OCCO)cc1)c1ncc(-c2cccc(Nc3cc(C)ccn3)n2)s1` [Compound A-140], for which the half-inhibitory concentration (IC50) was above 1000 nM in experiment [1] and 100 to 1000 nM in experiment [2].
On to `Cc1ccnc(Nc2cccc(-c3cnc([C@H](C)NC(=O)C4CC4)s3)n2)c1` [Compound A-141], for which the IC50 in experiment [1] and in experiment [2] was 100 to 1000 nM each time.
Regarding `Cc1ccnc(Nc2cccc(-c3cnc(CN)s3)n2)c1` [Compound A-142], the results for the half-maximal inhibitory concentration (IC50) in experiment [1] and in experiment [2] were above 1000 nM and 100 to 1000 nM, respectively.
In the same order, the values of `CC(=O)NCc1ncc(-c2cccc(Nc3cc(C)ccn3)n2)s1` [Compound A-143] are 100 to 1000 nM and 100 to 1000 nM.
Regarding `CCOC(=O)CC(C)(C)c1ncc(-c2cccc(Nc3cc(C)ccn3)n2)s1` [Compound A-144], the IC50 in experiment [1] and in experiment [2] was above 1000 nM throughout.
For the molecule `Cc1ccnc(Nc2cccc(-c3cnc(C(C)(C)CC(=O)O)s3)n2)c1` [Compound A-145], the IC50 was above 1000 nM in experiment [1] and 100 to 1000 nM in experiment [2].
As for `CC(=O)OCC(=O)N[C@@H](C)c1ncc(-c2cccc(Nc3cc(C)ccn3)n2)s1` [Compound A-146], the IC50 in experiment [1] and in experiment [2] was 100 to 1000 nM throughout.
On to `Cc1ccnc(Nc2cccc(-c3cnc([C@H](C)NC(=O)CO)s3)n2)c1` [Compound A-147, 2-hydroxy-N—((S)-1-{5-[6-(4-methylpyridin-2-ylamino)pyridin-2-yl]thiazol-2-yl}ethyl)acetamide], for which the IC50 was 100 to 1000 nM in experiment [1] and below 100 nM in experiment [2].
In the case of `Cc1ccnc(Nc2cccc(-c3cnc(C(=O)NCCC(=O)O)s3)n2)c1` [Compound A-148, 3-({5-[6-(4-methylpyridin-2-ylamino)pyridin-2-yl]thiazole-2-carbonyl}amino)propionic acid], the concentration for half-maximal inhibition (IC50) in experiment [1] is above 1000 nM; in experiment [2], below 100 nM.
In the same order, the values of `Cc1ccnc(Nc2cccc(-c3cnc([C@H](N)c4ccc(OCc5ccccc5)cc4)s3)n2)c1` [Compound A-150] are above 1000 nM and 100 to 1000 nM.
In the same order, the values of `Cc1ccnc(Nc2cccc(-c3cnc(CCc4ccc(C(=O)O)cc4)s3)n2)c1` [Compound A-151, 4-(2-{5-[6-(4-methylpyridin-2-ylamino)pyridin-2-yl]thiazol-2-yl}ethyl)benzoic acid] are 100 to 1000 nM and below 100 nM.
The corresponding values for `Cc1ccnc(Nc2cccc(-c3cnc(CN4CCC(O)CC4)s3)n2)c1` [Compound A-152, 1-{5-[6-(4-methylpyridin-2-ylamino)pyridin-2-yl]thiazol-2-ylmethyl}piperidin-4-ol] are 100 to 1000 nM and below 100 nM.
On to `COC(=O)C(C)(C)NC(=O)c1ncc(-c2cccc(Nc3cc(C)ccn3)n2)s1` [Compound A-153], for which the IC50 is above 1000 nM in experiment [1] and 100 to 1000 nM in experiment [2].
Turning to `Cc1ccnc(Nc2cccc(-c3cnc(C(=O)NC(C)(C)C(=O)O)s3)n2)c1` [Compound A-154], the results for the IC50 in experiment [1] and in experiment [2] were above 1000 nM and 100 to 1000 nM, respectively.
For `CCOC(=O)CC(C)(C)NC(=O)c1ncc(-c2cccc(Nc3cc(C)ccn3)n2)s1` [Compound A-155], the results for the IC50 in experiment [1] and in experiment [2] were above 1000 nM and 100 to 1000 nM, respectively.
With `Cc1ccnc(Nc2cccc(-c3cnc(CC(C)(C)CC(=O)O)s3)n2)c1` [Compound A-157], the IC50 in experiment [1] is above 1000 nM; in experiment [2], 100 to 1000 nM.
The corresponding values for `Cc1ccnc(Nc2cccc(-c3cnc(CC(C)(C)CCO)s3)n2)c1` [Compound A-158, 3,3-dimethyl-4-{5-[6-(4-methylpyridin-2-ylamino)pyridin-2-yl]thiazol-2-yl}butan-1-ol] are 100 to 1000 nM and below 100 nM.

The values above are taken from patent US7803801B2, “Aminopyridine compounds having Syk inhibitory activity” (Japan Tobacco, Inc., priority 2005, dated 2010).
